# Laboratory results published in patent publication US10695434B2, “Preventing central nervous system induced nausea through use of vitamin B12 conjugation” (Syracuse University, priority 2018, dated 2020).
# Assays:
# [1] = Intraperitoneal glucose tolerance test (IPGTT); type: in vivo, C57BL/6J mice; conditions: mice
# Method: The experimental procedure for IPGTT in mice was similar to that used for OGTT in rats. Briefly, mice (n=13; 8 females, 5 males) were food and water deprived for 4 h before and during the IPGTT. Testing was completed mid-light phase. Blood was collected from the tail tip and analyzed for BG. […] Thirty minutes later (t=0 min), BG was measured and each mouse received an IP injection of glucose (2 g/kg). Subsequent BG readings were taken at 20, 40, 60, and 120 min after glucose injection. After the final BG reading, food and water were returned. Area under the curve (AUC) was calculated from 0-120 min (e.g., beginning at the time of glucose administration) using the trapezoidal method.
# [2] = Oral glucose tolerance test (OGTT); type: in vivo, Sprague Dawley rats; conditions: rats
# Method: Rats (n=12) were deprived of food overnight before testing. On the morning of testing, just after the onset of the […], water was also removed from the cage. A small drop of blood was collected from the tail tip and analyzed for blood glucose (BG) level using a standard glucometer (AccuCheck). Immediately after this baseline BG reading (t=−30 min), each rat received SC injection of B12-Ex4 (5 or 20 μg/kg) or vehicle (1 ml/kg sterile saline); doses of drug were selected based on the results of the feeding study. Thirty minutes later (t=0 min), BG was measured and each rat received an oral gavage of glucose (2 g/kg). Subsequent BG readings were taken at 20, 40, 60, and 120 min after glucose gavage. After the final BG reading, food and water were returned.
# (§1) Pre-weighed food was returned to the rats after the OGTT, and chow intake was measured for ˜21.5 h (e.g., until 24 h after the SC injections). Spillage was accounted for in food intake measurements. Body weight was recorded at 0 and 24 h. For the OGTT, n=10 rats were tested; food and body weight data were collected from n=9 due to a technical error in food intake measurement.
# [3] = Energy balance: chow intake and body weight after SC injection; type: in vivo, Sprague Dawley rats; conditions: rats
# Method: Shortly before the onset of the dark phase, rats (n=12) were given subcutaneous (SC) injection of B12-Ex4 (1, 5, or 20 μg/kg) or vehicle (1 ml/kg sterile saline). Chow intake was measured at 1, 3, 6, and 24 h post-injection. Food spillage was accounted for in all intake measurements. Body weight was also measured at 0 and 24 h.
# as §1
# [4] = Oral glucose tolerance test, food intake and nausea (kaolin consumption) in diabetic lean rats; type: in vivo; conditions: Goto-Kakazaki rats; Ex-4 20 ug/Kg, B12-Ex4 equimolar, liraglutide 100 ug/Kg, 60 min pre-glucose
# Method: FIG. 8 is a series of graphs showing a standard oral glucose tolerance test performed in Goto-Kakazaki rats, a form of naturally diabetic lean rat, along with food intake and nausea measurements.
# Referring to FIG. 8, Testing of Ex-4 at 20 ug/Kg, B12-Ex4 at equimolar to Ex-4, and liraglutide at 100 ug/Kg were screened for glucoregulation, food intake reduction and nausea (kaolin consumption). All drugs were administered at 60 minutes pre-glucose bolus, food intake and nausea were tracked over 6 hours.
# [5] = Conditioned taste avoidance (CTA), two-bottle test (nausea/malaise); type: in vivo, Sprague Dawley rats; conditions: rats, IP, B12-Ex4 5 μg/kg, LiCl 0.15M
# Method: Rats (n=8-10 per drug) were evaluated for expression of a CTA to a flavor paired with B12-Ex4 (5 μg/kg, IP). […] See Supplemental Methods for more details.
# Human recombinant TCII = biological target: T1, Human recombinant TCII (Homo sapiens, UniProt P20062); test: TCII binding, radio chase assay using 57Co-labelled B12
# T1 sequence (P20062 19-427): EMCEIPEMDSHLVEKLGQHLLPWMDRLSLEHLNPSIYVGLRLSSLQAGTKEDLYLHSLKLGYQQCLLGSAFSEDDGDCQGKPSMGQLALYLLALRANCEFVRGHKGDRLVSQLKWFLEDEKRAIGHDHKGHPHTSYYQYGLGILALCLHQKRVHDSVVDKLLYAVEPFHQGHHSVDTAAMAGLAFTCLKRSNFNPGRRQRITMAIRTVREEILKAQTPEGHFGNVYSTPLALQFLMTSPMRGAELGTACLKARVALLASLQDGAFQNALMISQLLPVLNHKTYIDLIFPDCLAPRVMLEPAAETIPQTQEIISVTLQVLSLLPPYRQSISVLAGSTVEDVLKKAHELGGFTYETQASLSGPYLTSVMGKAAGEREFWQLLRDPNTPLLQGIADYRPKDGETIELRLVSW
# Text: FIG. 1 is a series of graphs of (A) Synthetic scheme for Cy5-B12, Cy5 alkyne was “clicked” onto a B12-azide conjugate. (B) RP-HPLC of Cy5-B12 showing purity ≥98% and LC-MS showing 1031[M+2H]^+2, 1042[M+Na+2H]^+2, and 1050 [M+K+2H]^+2, consistent with the conjugate. (C) Excitation and emission spectra of Cy5-B12 at 645 and 682 nm, respectively. […] Note that B12-Ex4 agonism at the GLP-1 receptor was previously reported (68 pM).
# One addition to the characterization was the measure of TCII binding of B12-Ex4 (FIG. 1D), which was conducted at the Department of Clinical Medicine-Clinical Biochemistry, University of Aarhus, Denmark as described. […] Injections were separated by at least 48 h. For most in vivo experiments, injections were administered using a within-subjects, Latin square design. The exception was the conditioned taste avoidance (CTA) study, which used a between-subjects design.
# In addition, the food intake- and body weight-suppressive effects of GLP-1R agonists have highlighted the utility of these pharmacotherapies for the treatment of obesity.
compound,measurement,setting,value
exendin-4 [Ex4],BG prior to IP glucose injection (t=0),[1]; 30 min after IP drug,reduced BG levels
same,blood glucose levels in the IPGTT,"[1]; IP Ex4 5 μg/kg or equimolar B12-Ex4, IP glucose 2 g/kg",strongly attenuated the increase in blood glucose levels
same,"BG at 20 min, Ex4 compared to B12-Ex4",[1]; p<0.05,more potent effect
same,blood glucose area under the curve 0-120 min,"[1]; post-glucose load, vs saline",hypoglycemic effects
same,"blood glucose by drug on its own (t=0, before glucose)","[2]; SC 5 or 20 μg/kg, 30 min after injection",increased BG on its own
same,blood glucose levels in the OGTT (overall),"[2]; SC 5 or 20 μg/kg, oral glucose 2 g/kg",pronounced hyperglycemic response
same,BG late after glucose gavage,"[2]; B12-Ex4: both doses at 60 min, higher dose at 120 min, Ex4: 40, 60, 120 min",remained significantly elevated
same,food intake in the 21.5 h after OGTT,"[3]; SC 5 or 20 μg/kg, vs vehicle",ate significantly less
same,"body weight gain, 24 h","[3]; SC, vehicle versus 20 μg/kg p<0.05",gained less body weight
same,hyperglycemia in OGTT,[4],does do
"[Cl-].[Li+] [LiCl, lithium chloride]",acceptance of the drug-paired flavor (CTA),[5],produce avoidance of the drug-paired flavor
Cyanocobalamin [cyano-B12],Kd,Human recombinant TCII,0.98 nM
